Publication PMC12040169 (PLOS Biology, 2025)

assay: in vitro; settings: human, hela cells, % viability

| SMILES | viability at 28.5 h, 10 µM [%] |
| --- | --- |
| Cc1ccc(-c2nnc(CNC(=O)c3cccc(-c4ccc(F)cc4)c3)o2)s1 [CBK286300] | 109 |
| Cn1ncc(Cl)c1C1CCCCCN1S(=O)(=O)c1ccc2[nH]c(=O)[nH]c(=O)c2c1 (stereo not drawn) [CBK286303] | 102 |
| O=C(CN1CCC(O)(Cn2cnc3ccccc32)CC1)c1ccc(-c2ccccc2)cc1 [CBK286306] | 86.8 |
| O=C1NC2(CCN(C(=O)CC3c4ccccc4Oc4ccccc43)CC2)Nc2ccccc21 [CBK286307] | 98.8 |
| CC(C(=O)N1CCC2(CC1)NC(=O)c1ccccc1N2)(c1ccccc1)c1ccccc1 [CBK286308] | 108 |
| COc1cc2c(cc1OC)C1c3ccccc3NC(c3ccccc3F)N1CC2 (stereo not drawn) [CBK286311] | 98.9 |
| O=C(Cc1ccc(-c2ccccc2)cc1)N1CCc2nc3ccccc3c(=O)n2CC1 [CBK286312] | 97.2 |
| O=C(c1ccco1)N1CCc2c([nH]c3ccccc23)C12CCN(Cc1ccccc1)CC2 [CBK286313] | 91 |
| O=C(CC1c2ccccc2Oc2ccccc21)N1CCc2nc3ccccc3c(=O)n2CC1 [CBK286314] | 92.4 |
| COc1ccccc1-c1ccc(CNC(Cc2ccsc2)c2nccs2)cc1 (stereo not drawn) [CBK286315] | 86.7 |
| CCN(CC)C(=O)CN1C(=O)[C@H]2CCCN2C(=O)c2ccccc21 [CBK286319] | 95.5 |
| OC(CN1CCC(O)(c2ccc3c(c2)OCO3)CC1)c1ccc2c(c1)CCC2 (stereo not drawn) [CBK286326] | 99.6 |
| CC(=O)c1cc(C(=O)Nc2ccc(Oc3ccc4c(c3)OCO4)cc2)cs1 [CBK286327] | 92.5 |
| Cc1ccccc1C1(O)CCN(CC(O)c2ccc3c(c2)CCC3)CC1 (stereo not drawn) [CBK286329] | 88 |
| Cc1cccc(C2(O)CCN(CC(O)c3ccc4c(c3)CCC4)CC2)c1 (stereo not drawn) [CBK286330] | 95.3 |
| COc1ccc(C2(O)CCN(CC(O)c3ccc(C(C)(C)C)cc3)CC2)cc1 (stereo not drawn) [CBK286333] | 90.6 |
| COc1ccc(C2(O)CCN(CC(O)c3ccc4c(c3)CCC4)CC2)cc1 (stereo not drawn) [CBK286334] | 95.9 |
| COc1ccccc1C1(O)CCN(Cc2ccccc2OCc2ccc3c(c2)OCO3)CC1 [CBK286337] | 80.4 |
| COc1cccc(C(O)CN2CCC3(CC2)CC(O)c2cc(C)ccc2O3)c1 (stereo not drawn) [CBK286338] | 88.4 |
| COc1cccc(C(O)CN2CCC3(CC2)CC(O)c2cc(Cl)c(C)cc2O3)c1 (stereo not drawn) [CBK286342] | 99.3 |
| Cc1[nH]c(=O)[nH]c(=O)c1CC(=O)N1CCCCC1CN1CCCCC1 (stereo not drawn) [CBK286344] | 98.8 |

| SMILES | viability at 28.5 h, 10 µM [%] |
| --- | --- |
| OC(CN1CCC2(CC1)CC(O)c1ccccc1O2)c1ccc(-c2ccccc2)cc1 (stereo not drawn) [CBK286347] | 101 |
| Cc1ccc(N2CCCC2=O)cc1S(=O)(=O)NC(c1ccccc1)c1ccccc1 [CBK286348] | 85.6 |
| Oc1ccc2c(c1)C(O)CC1(CCN(CC(O)c3ccc(-c4ccccc4)cc3)CC1)O2 (stereo not drawn) [CBK286351] | 91.3 |
| COc1ccccc1-c1ccc(NS(=O)(=O)c2ccc3c(c2)CCC(=O)N3)cc1 [CBK286353] | 82.5 |
| COc1ccc(N2CCN(CC(O)c3c[nH]c4cc(OC)ccc34)CC2)cc1 (stereo not drawn) [CBK286355] | 96.1 |
| Cc1cccnc1C(Cc1ccsc1)NS(=O)(=O)c1ccc2[nH]c(=O)[nH]c(=O)c2c1 (stereo not drawn) [CBK286356] | 111 |
| O=c1[nH]c(=O)c2cc(S(=O)(=O)Nc3ccc(N4CCCCCC4)cc3)ccc2[nH]1 [CBK286361] | 81.4 |
| Cc1cc2ccccc2n1CCCNS(=O)(=O)c1ccc2[nH]c(=O)[nH]c(=O)c2c1 [CBK286362] | 96 |
| CCn1c(C)cc2cc(NS(=O)(=O)c3ccc4[nH]c(=O)[nH]c(=O)c4c3)ccc21 [CBK286363] | 104 |
| O=C1CCc2cc(S(=O)(=O)Nc3ccccc3-c3ccccc3)ccc2N1 [CBK286366] | 92.6 |
| O=C1CCc2cc(S(=O)(=O)Nc3ccccc3Cc3ccccc3)ccc2N1 [CBK286369] | 87 |
| COc1cccc(-c2cccc(NS(=O)(=O)c3ccc4c(c3)CCC(=O)N4)c2)c1 [CBK286372] | 105 |
| O=c1[nH]c(=O)c2cc(S(=O)(=O)Nc3ccccc3-c3ccccc3)ccc2[nH]1 [CBK286374] | 102 |
| CC1CCCN(c2ccc(NS(=O)(=O)c3ccc4[nH]c(=O)[nH]c(=O)c4c3)cc2)C1 (stereo not drawn) [CBK286376] | 97.5 |
| O=c1[nH]c(=O)c2cc(S(=O)(=O)N3CCN(c4ccccn4)CC3)ccc2[nH]1 [CBK286379] | 112 |
| O=c1[nH]c(=O)c2cc(S(=O)(=O)N3CCCC(c4ccccc4)C3)ccc2[nH]1 (stereo not drawn) [CBK286381] | 106 |
| O=c1[nH]c(=O)c2cc(S(=O)(=O)N3CCC(c4ccccc4)C3)ccc2[nH]1 (stereo not drawn) [CBK286382] | 105 |
| O=c1[nH]c(=O)c2cc(S(=O)(=O)Nc3ccc(Cn4ccnc4)cc3)ccc2[nH]1 [CBK286383] | 105 |
| O=c1[nH]c(=O)c2cc(S(=O)(=O)NCC3CCN(Cc4ccccc4)C3)ccc2[nH]1 (stereo not drawn) [CBK286384] | 90 |
| O=c1[nH]c(=O)c2cc(S(=O)(=O)Nc3ccc(Oc4cccnc4)cc3)ccc2[nH]1 [CBK286386] | 99.2 |
| O=c1[nH]c(=O)c2cc(S(=O)(=O)NCC3(c4ccccc4)CCCC3)ccc2[nH]1 [CBK286387] | 112 |

| SMILES | viability at 28.5 h, 10 µM [%] |
| --- | --- |
| O=c1[nH]c(=O)c2cc(S(=O)(=O)Nc3cccc(CCc4ccccn4)c3)ccc2[nH]1 [CBK286389] | 97.9 |
| CC(C)C1c2cccn2CCN1S(=O)(=O)c1ccc2[nH]c(=O)[nH]c(=O)c2c1 (stereo not drawn) [CBK286391] | 99.6 |
| COc1ccc2c(c1)OC1(CCN(C(=O)C3CCCC3)CC1)CC2O (stereo not drawn) [CBK286400] | 84.4 |
| Cc1cc(C2CCCCCN2S(=O)(=O)c2ccc3[nH]c(=O)[nH]c(=O)c3c2)on1 (stereo not drawn) [CBK286405] | 93.6 |
| Cn1cc(C2CCCCCN2S(=O)(=O)c2ccc3[nH]c(=O)[nH]c(=O)c3c2)cn1 (stereo not drawn) [CBK286406] | 103 |
| Cn1ccc(C2CCCCCN2S(=O)(=O)c2ccc3[nH]c(=O)[nH]c(=O)c3c2)n1 (stereo not drawn) [CBK286407] | 71.1 |
| COc1ccc2[nH]c(=O)c(CNc3ccc4c(c3)-c3ccccc3S(=O)(=O)N4)cc2c1 [CBK286409] | 84.2 |
| c1coc(CNc2ncc(-c3ccc4c(c3)OCO4)c(-c3cccs3)n2)c1 [CBK286414] | 93.9 |
| O=C(NCc1cccs1)C1(Cc2ccccc2-c2ccc(F)c(F)c2)CCOCC1 [CBK286417] | 93.2 |
| COc1ccccc1CN1CCC(Cc2ccccc2-c2ccc(C)cc2C)(C(=O)O)CC1 [CBK286419] | 88.4 |
| Cc1nc2cc(-c3nccn3C)nn2c(N2CCN(c3ccc(O)cc3)CC2)c1C [CBK286427] | 92.8 |
| CC(=O)NC1(c2ccccc2F)CCN(c2ncc(-c3ccco3)c(-c3ccco3)n2)CC1 [CBK286428] | 95.3 |
| O=C(NCc1ccc(CO)cc1)[C@@H]1CN(Cc2ccccc2)C[C@H]1C(=O)c1ccc(F)cc1 [CBK286430] | 97.8 |
| CC(=O)N1CCc2sccc2C1c1ccccc1NCc1ccoc1 (stereo not drawn) [CBK286432] | 91.6 |
| CC(=O)N1CCc2sccc2C1c1ccc(NC(=O)c2ccc(F)cc2)cc1 (stereo not drawn) [CBK286434] | 89 |
| COCC(=O)N1CCc2sccc2C1c1ccc(NC(=O)c2ccc(F)cc2)cc1 (stereo not drawn) [CBK286435] | 93.8 |
| O=C(c1ccsc1)N1CCC2(CC1)CN(Cc1ccccc1)CC(c1ccccc1)O2 (stereo not drawn) [CBK286438] | 94.4 |
| Cc1nccc(-c2cccc(NC3CCN(c4ccc5c(c4)OCCO5)CC3)c2)n1 [CBK286439] | 97.1 |
| Cc1cccc(CN2CCN(c3ccccc3C(O)c3nccn3C)CC2)c1 (stereo not drawn) [CBK286441] | 88.5 |
| COc1cccc(CNc2ccc(C3c4ccsc4CCN3C(C)=O)cc2)c1 (stereo not drawn) [CBK286443] | 109 |
| COCC(=O)N1CCc2sccc2C1c1ccc(NCc2ccc(F)cc2)cc1 (stereo not drawn) [CBK286445] | 89.7 |

| SMILES | viability at 28.5 h, 10 µM [%] |
| --- | --- |
| COCC(=O)N1CCc2sccc2C1c1ccc(NCc2ccc(C)o2)cc1 (stereo not drawn) [CBK286447] | 96.3 |
| CC(O)CN(Cc1ccc(-c2ccccc2)cc1)Cc1ccc2c(c1)OCO2 (stereo not drawn) [CBK286450] | 94.1 |
| CCOc1ccc(CNc2ccc(C3c4ccsc4CCN3C(C)=O)cc2)cc1 (stereo not drawn) [CBK286451] | 96.3 |
| CCOc1ccc(CNc2ccc(C3c4ccsc4CCN3C(=O)COC)cc2)cc1 (stereo not drawn) [CBK286453] | 85.3 |
| CC1Cc2cc(C(O)CN3CCC4CCCCC4C3)ccc2N1S(C)(=O)=O (stereo not drawn) [CBK286456] | 116 |
| CC(=O)N1CCCc2cc(C(O)CN3CCN(c4cccc(C)c4)CC3)ccc21 (stereo not drawn) [CBK286457] | 93.1 |
| COCC(=O)N1CCc2sccc2C1c1ccc(NCc2ccc(OC)cc2)cc1 (stereo not drawn) [CBK286458] | 85.1 |
| CCOc1ccccc1CNc1ccc(C2c3ccsc3CCN2C(C)=O)cc1 (stereo not drawn) [CBK286459] | 104 |
| Nc1ncc(CN(Cc2ccco2)CC(O)Cn2c3ccccc3c3ccccc32)cn1 (stereo not drawn) [CBK286462] | 88.6 |
| O=c1[nH]c2c(cc1CNc1cccc(O)c1)c(-c1cccc(F)c1)nn2-c1ccccc1 [CBK286463] | 93 |
| COc1ccc(C(=O)Nc2ccc(C3c4ccsc4CCN3C(C)=O)cc2)cc1 (stereo not drawn) [CBK286465] | 85 |
| COCC(=O)N1CCc2sccc2C1c1ccc(NC(=O)c2cccc(F)c2)cc1 (stereo not drawn) [CBK286468] | 102 |
| COCC(=O)N1CCc2sccc2C1c1ccc(NC(=O)c2ccccc2F)cc1 (stereo not drawn) [CBK286469] | 87.5 |
| COc1ccc(-c2cccc(CN(Cc3ccc4c(c3)OCO4)CC(C)O)c2)cc1 (stereo not drawn) [CBK286472] | 107 |
| CCOc1cc2c(cc1CN(Cc1ccc3c(c1)OCO3)CC(C)O)CCC2 (stereo not drawn) [CBK286474] | 87.2 |
| CCC(=O)N1CCCc2cc(C(O)CN3CCN(c4cccc(OC)c4)CC3)ccc21 (stereo not drawn) [CBK286476] | 114 |
| COc1ccc([C@H]2CN(Cc3ccccc3)C[C@@H]2NC(=O)CCc2ccco2)cc1 [CBK286477] | 87.6 |
| COc1ccc([C@H]2CN(Cc3ccccc3)C[C@@H]2NC(=O)c2ccco2)cc1OC [CBK286478] | 88.4 |
